Source: US11214803B2, “Modulators of YAP1 expression” (Ionis Pharmaceuticals, Inc., priority 2019, dated 2022)
Strand notation (5' to 3'): a small letter for the sugar, then the base; units joined by * are phosphorothioate-linked, units joined directly phosphodiester-linked; [ ] holds rarer units or linkages, { } end groups; capitals alone tell only the bases. k = constrained ethyl (cEt); [5mC] = 5-methylcytosine; d = 2'-deoxy (DNA)

Tested on: Yap1 mRNA
Assay: Antisense inhibition of human Yap1 in A-431 cells by cEt gapmers, single dose (Example 3, RTS36584)
Type: cell-based
Conditions: Table 8; A-431 cells, 5,000 cells per well, free uptake, 2,000 nM, approximately 48 hours; RTS36584; normalized to RIBOGREEN; Yap1 mRNA relative to untreated control cells
Method: Modified oligonucleotides were designed to target a Yap1 nucleic acid and were tested for their effect on Yap1 mRNA level in vitro. The modified oligonucleotides were tested in a series of experiments that had similar culture conditions. Cultured A-431 cells at a density of 5,000 cells per well were treated using free uptake with 2,000 nM of modified oligonucleotide. After a treatment period of approximately 48 hours, RNA was isolated from the cells and Yap1 mRNA levels were measured by quantitative real-time RTPCR. Human primer probe set RTS36584 (forward sequence […], designated herein as SEQ ID NO.: 14; reverse sequence […], designated herein as SEQ ID NO.: 15; probe sequence […], designated herein as SEQ ID NO.: 16) was used to measure mRNA levels. Yap1 mRNA levels were normalized to total RNA content, as measured by RIBOGREEN®. Results are presented in the tables below as percent control of the amount of Yap1 mRNA relative to untreated control cells (% UTC). The modified oligonucleotides with percent control values marked with an asterisk (*) target the amplicon region of the primer probe set. Additional assays may be used to measure the potency and efficacy of the modified oligonucleotides targeting the amplicon region.
The newly designed modified oligonucleotides in the Tables below were designed as 3-10-3 cEt gapmers. The gapmers are 16 nucleosides in length, wherein the central gap segment comprises of ten 2′-deoxynucleosides and is flanked by wing segments on the 5′ direction and the 3′ direction comprising three nucleosides each. Each nucleoside in the 5′ wing segment and each nucleoside in the 3′ wing segment has a cEt sugar modification. The internucleoside linkages throughout each gapmer are phosphorothioate (P═S) linkages. All cytosine residues throughout each gapmer are 5-methylcytosines.
“Start site” indicates the 5′-most nucleoside to which the gapmer is targeted in the human gene sequence. “Stop site” indicates the 3′-most nucleoside to which the gapmer is targeted human gene sequence. […] Activity of the modified oligonucleotide may be defined in a different experiment.

| Substance | YAP1 (% UTC) |
| --- | --- |
| 958375 (antisense kA*kA*kA*dG*d[5mC]*d[5mC]*dT*dT*dA*dG*dA*dG*dT*k[5mC]*kA*kA) [Compound 958375] | 2 % UTC |

Same assay, conditions: Table 9; A-431 cells, 5,000 cells per well, free uptake, 2,000 nM, approximately 48 hours; RTS36584; normalized to RIBOGREEN; Yap1 mRNA relative to untreated control cells

| Substance | YAP1 (% UTC) |
| --- | --- |
| 958626 (antisense kT*kG*kG*dG*d[5mC]*dA*dA*dA*dG*dT*dT*d[5mC]*d[5mC]*kT*kA*kT) [Compound 958626] | 158 % UTC |
| 958686 (antisense k[5mC]*kG*k[5mC]*dA*dA*dT*dA*dT*dA*dG*dT*d[5mC]*dT*kA*kT*kA) [Compound 958686] | 4 % UTC |
| 958761 (antisense kA*kG*kT*d[5mC]*dT*d[5mC]*dA*dA*d[5mC]*dA*dA*d[5mC]*d[5mC]*kT*kT*k[5mC]) [Compound 958761] | 7 % UTC |
| 958786 (antisense kT*kA*kT*dG*dT*d[5mC]*d[5mC]*dT*dA*d[5mC]*dT*dT*dT*k[5mC]*k[5mC]*k[5mC]) [Compound 958786] | 10 % UTC |
| 958756 (antisense kG*kT*kG*dT*dT*dG*d[5mC]*dA*dT*dG*dA*d[5mC]*dA*kG*k[5mC]*k[5mC]) [Compound 958756] | 15 % UTC |

Same assay, conditions: Table 10; A-431 cells, 5,000 cells per well, free uptake, 2,000 nM oligonucleotide, approx. 48 hours; primer probe set RTS36584; Yap1 mRNA normalized to RIBOGREEN, percent of untreated control

| Substance | YAP1 (% UTC) |
| --- | --- |
| 958717 (antisense kA*kA*kT*dA*dA*dT*dA*dT*dA*dG*d[5mC]*dT*dT*kA*k[5mC]*kG) [Compound 958717] | 11 % UTC |
| 958657 (k[5mC]*kA*kG*dT*dA*dT*dA*dA*dT*dA*dT*d[5mC]*d[5mC]*kT*kA*kA; antisense) [Compound 958657] | 37 % UTC |

Same assay, conditions: Table 11; A-431 cells, 5,000 cells per well, free uptake, 2,000 nM oligonucleotide, approx. 48 hours; primer probe set RTS36584; Yap1 mRNA normalized to RIBOGREEN, percent of untreated control

| Substance | YAP1 (% UTC) |
| --- | --- |
| 958628 (antisense kG*k[5mC]*kT*dA*dA*d[5mC]*dT*dA*d[5mC]*dA*dT*dT*dG*k[5mC]*kA*kG) [Compound 958628] | 81 % UTC |
| 958728 (antisense kT*kA*kT*d[5mC]*dT*dG*dT*d[5mC]*dA*dG*dT*dT*dA*kT*k[5mC]*k[5mC]) [Compound 958728] | 10 % UTC |
| 958583 (kA*kG*k[5mC]*dT*dA*dA*dT*d[5mC]*dT*dG*d[5mC]*dT*dG*kA*kT*kA; antisense) [Compound 958583] | 89 % UTC |

Same assay, conditions: Table 12; A-431 cells, 5,000 cells per well, free uptake, 2,000 nM modified oligonucleotide, approx. 48 hours; RTS36584; normalized to RIBOGREEN; Yap1 mRNA relative to untreated control cells

| Substance | YAP1 (% UTC) |
| --- | --- |
| 958614 (antisense kG*kT*k[5mC]*dT*dT*dG*dT*dT*d[5mC]*dT*dT*dA*dT*kG*kG*kT) [Compound 958614] | 6 % UTC |
| 958489 (kT*kT*k[5mC]*dT*dA*dA*dG*dT*d[5mC]*dT*dG*dA*dG*kT*kA*kT; antisense) [Compound 958489] | 14 % UTC |
| 958814 (kG*kG*k[5mC]*dT*dA*dT*dG*d[5mC]*d[5mC]*dT*d[5mC]*dT*d[5mC]*kT*kT*kA; antisense) [Compound 958814] | 214 % UTC |

Same assay, conditions: Table 13; A-431 cells, 5,000 cells per well, free uptake, 2,000 nM modified oligonucleotide, approx. 48 hours; RTS36584; normalized to RIBOGREEN; Yap1 mRNA relative to untreated control cells

| Substance | YAP1 (% UTC) |
| --- | --- |
| 958820 (kG*kA*k[5mC]*d[5mC]*dA*dG*dT*dA*dA*dG*dA*dA*dG*k[5mC]*k[5mC]*kA; antisense) [Compound 958820] | 49 % UTC |
| 958440 (antisense kT*kG*k[5mC]*dG*d[5mC]*d[5mC]*d[5mC]*d[5mC]*dG*dG*d[5mC]*dT*d[5mC]*k[5mC]*kA*k[5mC]) [Compound 958440] | 54 % UTC |
| 958565 (kT*kT*kG*dA*dG*d[5mC]*dA*d[5mC]*dT*dG*dA*dA*dA*kG*kT*kA; antisense) [Compound 958565] | 4 % UTC |
| 958705 (antisense kG*kG*k[5mC]*d[5mC]*dA*dT*d[5mC]*dA*dA*dT*dA*dA*dA*kG*kA*k[5mC]) [Compound 958705] | 112 % UTC |
| 958505 (kG*kA*kT*dA*dA*dT*d[5mC]*dG*dA*dG*dA*dT*dT*kT*kA*kA; antisense) [Compound 958505] | 6 % UTC |

Same assay, conditions: Table 26; Yap1 mRNA by 3-10-3 cEt gapmers targeting SEQ ID NO.: 1, and 2; percent of untreated control

| Substance | YAP1 (% UTC) |
| --- | --- |
| 1075884 (antisense kA*kT*kT*dA*dG*dT*dA*dA*dT*dG*dA*d[5mC]*dT*kA*kA*k[5mC]) [compound 1075884] | 116 % UTC |
| 1075468 (antisense k[5mC]*kA*k[5mC]*d[5mC]*dA*dA*dT*dA*d[5mC]*dT*dG*dA*dG*kT*kA*kT) [compound 1075468] | 91 % UTC |
| 1076268 (kG*kT*kA*d[5mC]*dA*dA*dT*dA*dA*dT*dG*d[5mC]*dT*kT*k[5mC]*k[5mC]; antisense) [compound 1076268] | 10 % UTC |
| 1075308 (antisense kA*kA*kT*dT*dA*dA*dA*d[5mC]*dG*dA*dA*dA*d[5mC]*kA*k[5mC]*kG) [compound 1075308] | 97 % UTC |

Same assay, conditions: Table 27; Yap1 mRNA by 3-10-3 cEt gapmers targeting SEQ ID NO.: 1, and 2; percent of untreated control

| Substance | YAP1 (% UTC) |
| --- | --- |
| 1074861 (kT*kG*k[5mC]*dT*d[5mC]*dT*dT*dA*d[5mC]*dA*dT*d[5mC]*dT*kA*kA*kA; antisense) [compound 1074861] | 23 % UTC |
| 1075821 (k[5mC]*kT*kT*dA*dA*d[5mC]*dT*dT*d[5mC]*d[5mC]*d[5mC]*dA*d[5mC]*kT*k[5mC]*kG; antisense) [compound 1075821] | 22 % UTC |

Same assay, conditions: Table 28; Yap1 mRNA as percent of untreated control; 3-10-3 cEt gapmers targeting SEQ ID NO.: 1, and 2

| Substance | YAP1 (% UTC) |
| --- | --- |
| 1075822 (k[5mC]*kT*kT*dA*dG*dT*dA*dA*dT*dT*dG*d[5mC]*d[5mC]*k[5mC]*kA*kT; antisense) [compound 1075822] | 35 % UTC |
| 1074478 (k[5mC]*k[5mC]*kT*dA*dG*dG*dT*dT*d[5mC]*d[5mC]*dG*dA*d[5mC]*kA*kA*kA; antisense) [compound 1074478] | 69 % UTC |
| 1075406 (antisense kA*k[5mC]*kT*dA*dT*dA*dT*dA*dA*d[5mC]*d[5mC]*dT*dG*kA*kA*k[5mC]) [compound 1075406] | 99 % UTC |

Same assay, conditions: Table 29; Yap1 mRNA as percent of untreated control; 3-10-3 cEt gapmers targeting SEQ ID NO.: 1, and 2

| Substance | YAP1 (% UTC) |
| --- | --- |
| 1076495 (kG*kA*kT*dT*dA*dG*dT*dG*dA*dA*dA*dA*dT*kT*k[5mC]*k[5mC]; antisense) [compound 1076495] | 30 % UTC |
| 1074191 (antisense kA*k[5mC]*kG*dG*d[5mC]*dG*dG*dG*d[5mC]*d[5mC]*d[5mC]*dT*dG*k[5mC]*k[5mC]*k[5mC]) [compound 1074191] | 80 % UTC |
| 1074255 (antisense kT*k[5mC]*kA*dT*d[5mC]*dT*dG*dG*dG*dA*d[5mC]*dA*dG*k[5mC]*kA*kT) [compound 1074255] | 16 % UTC |
| 1075311 (antisense kA*kG*kT*dA*dA*dT*dT*dA*dA*dA*d[5mC]*dG*dA*kA*kA*k[5mC]) [compound 1075311] | 100 % UTC |

Same assay, conditions: Table 34; Yap1 mRNA as percent of untreated control; 3-10-3 cEt gapmers targeting SEQ ID NO: 1 and 2; single dose

| Substance | YAP1 (% UTC) |
| --- | --- |
| 1076404 (antisense kT*kA*kT*dT*dT*dA*dA*dG*dA*d[5mC]*d[5mC]*dT*dG*kG*kT*kG) [compound 1076404] | 13 % UTC |
| 1075380 (antisense kA*k[5mC]*kT*dA*dA*dA*dA*d[5mC]*dT*dG*dA*d[5mC]*dT*kG*kT*k[5mC]) [compound 1075380] | 94 % UTC |

Same assay, conditions: Table 35; Yap1 mRNA as percent of untreated control; 3-10-3 cEt gapmers targeting SEQ ID NO: 1 and 2; single dose

| Substance | YAP1 (% UTC) |
| --- | --- |
| 1076021 (k[5mC]*kA*kT*dT*dA*dA*dT*dA*dA*dA*dG*dT*dT*kA*k[5mC]*k[5mC]; antisense) [compound 1076021] | 95 % UTC |
| 1075189 (kG*k[5mC]*kT*dA*dA*dT*dA*dG*dT*d[5mC]*dA*d[5mC]*dT*kG*kT*kT; antisense) [compound 1075189] | 11 % UTC |
| 1076437 (kG*kA*kA*dG*dA*dA*dT*dA*dG*d[5mC]*dA*dT*d[5mC]*kT*kG*kA; antisense) [compound 1076437] | 19 % UTC |
| 1074165 (k[5mC]*k[5mC]*k[5mC]*dA*dG*dG*d[5mC]*dG*dA*dG*d[5mC]*dG*dA*kG*kG*kG; antisense) [compound 1074165] | 90 % UTC |
| 1075925 (antisense kA*kA*k[5mC]*d[5mC]*dT*dA*dT*dA*dT*dT*dA*dT*dT*kT*kG*k[5mC]) [compound 1075925] | 28 % UTC |
| 1075221 (k[5mC]*kA*kT*dT*dA*dT*d[5mC]*d[5mC]*dG*dG*dG*dA*dG*kA*kG*k[5mC]; antisense) [compound 1075221] | 10 % UTC |
